Data published in patent US20250136570A1 (Tango Therapeutics, Inc., priority 2021, published 2025).

What was measured:
[1] = target: Recombinant HDAC1 (Homo sapiens (Human), UniProt Q13547); assay: HDAC1 inhibition, Fluor de Lys fluorescent enzyme assay; type: biochemical; conditions: 3 hours pre-incubation at room temp; 6 nM enzyme; 16 μM Fluor de Lys substrate; duplicate
Outline: (§1)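 Enzyme (HDAC1 6 nM, HDAC3/NCor2 1.2 nM final) pre-incubated with compound 3 h at ~22 °C in Tris pH 8 buffer with 0.01% BSA. Reaction run 1 h with 16 μM Fluor de Lys substrate and stopped with TSA-containing developer. Fluorescence read at Ex 360/Em 460; IC50 from an occupancy equation with Hill coefficient, in duplicate.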

[2] = target: HDAC3/NCor2 (Homo sapiens (Human), UniProt O15379); assay: HDAC3 inhibition, Fluor de Lys fluorescent enzyme assay; type: biochemical; conditions: 3 hours pre-incubation at room temp; 1.2 nM enzyme; 16 μM Fluor de Lys substrate; duplicate
Outline: as §1

Sequence of Recombinant HDAC1 (Q13547 whole entry): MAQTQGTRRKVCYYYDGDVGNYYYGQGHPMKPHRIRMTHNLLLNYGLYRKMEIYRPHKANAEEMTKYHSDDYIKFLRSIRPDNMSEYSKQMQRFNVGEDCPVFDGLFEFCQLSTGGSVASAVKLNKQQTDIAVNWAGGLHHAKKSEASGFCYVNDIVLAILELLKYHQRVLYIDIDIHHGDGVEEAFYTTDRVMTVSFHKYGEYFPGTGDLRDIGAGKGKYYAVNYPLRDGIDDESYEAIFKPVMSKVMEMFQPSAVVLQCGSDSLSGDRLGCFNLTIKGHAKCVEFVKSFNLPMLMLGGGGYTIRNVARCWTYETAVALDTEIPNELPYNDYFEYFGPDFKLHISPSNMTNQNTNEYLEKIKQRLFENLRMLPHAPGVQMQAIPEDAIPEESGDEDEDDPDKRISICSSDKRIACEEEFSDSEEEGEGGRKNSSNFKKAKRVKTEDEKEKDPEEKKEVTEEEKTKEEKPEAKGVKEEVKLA
Sequence of HDAC3/NCor2 (O15379 whole entry): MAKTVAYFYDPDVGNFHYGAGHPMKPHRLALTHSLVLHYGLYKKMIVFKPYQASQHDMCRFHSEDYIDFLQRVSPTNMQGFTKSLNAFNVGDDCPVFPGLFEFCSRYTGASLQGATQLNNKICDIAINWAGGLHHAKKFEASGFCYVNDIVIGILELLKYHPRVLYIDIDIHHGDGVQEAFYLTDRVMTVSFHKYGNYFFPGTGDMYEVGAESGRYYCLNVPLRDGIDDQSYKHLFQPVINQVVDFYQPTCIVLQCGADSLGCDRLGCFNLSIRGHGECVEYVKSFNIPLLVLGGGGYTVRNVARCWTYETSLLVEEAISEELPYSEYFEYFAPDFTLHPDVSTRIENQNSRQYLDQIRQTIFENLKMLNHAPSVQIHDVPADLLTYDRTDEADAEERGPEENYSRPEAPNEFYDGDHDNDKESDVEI
Sequence of HDAC3/NCor2 (Q9Y618 395-489 partner): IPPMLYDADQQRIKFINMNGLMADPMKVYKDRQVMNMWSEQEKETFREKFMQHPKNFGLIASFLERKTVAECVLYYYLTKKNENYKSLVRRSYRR

SMILES | IC50 [1] | IC50 [2]
CS(=N)(=O)c1ccc(C(=O)Nc2cc(-c3ccc(C(N)=O)s3)ccc2N)cc1 (stereo not shown) [Compound 176, 5-[4-amino-3-[[4-(methylsulfonimidoyl)benzoyl]amino]phenyl]thiophene-2-carboxamide] | > 2000 nM | > 2000 nM
N=S(=O)(c1ccc(C(=O)Nc2cc(-c3ccc(F)cc3)ccc2N)cc1)c1ccc(=O)[nH]c1 (stereo not shown) [Compound 192, N-[2-amino-5-(4-fluorophenyl)phenyl]-4-[(6-oxo-1H-pyridin-3-yl)sulfonimidoyl]benzamide] | < 100 nM | 500 to 2000 nM
COCCOCc1cncc(S(=N)(=O)c2ccc(C(=O)Nc3cc(-c4ccc(F)cc4)ccc3N)cc2)c1 (stereo not shown) [Compound 193, N-[2-amino-5-(4-fluorophenyl)phenyl]-4-[[5-(2-methoxyethoxymethyl)-3-pyridyl]sulfonimidoyl]benzamide] | < 100 nM | > 2000 nM
CCS(=N)(=O)c1ccc(C(=O)Nc2cc(-c3ccc(F)cc3)ccc2N)cc1 (stereo not shown) [Compound 194, N-[2-amino-5-(4-fluorophenyl)phenyl]-4-(ethylsulfonimidoyl)benzamide] | < 100 nM | 500 to 2000 nM
N=S(=O)(c1ccc(C(=O)Nc2cc(-c3ccc(F)cc3)ccc2N)cc1)c1cnccn1 (stereo not shown) [Compound 195, N-[2-amino-5-(4-fluorophenyl)phenyl]-4-(pyrazin-2-ylsulfonimidoyl)benzamide] | < 100 nM | 500 to 2000 nM
N=S(=O)(c1ccc(C(=O)Nc2cc(-c3ccc(F)cc3)ccc2N)cc1)c1ccccc1F (stereo not shown) [Compound 197, N-[2-amino-5-(4-fluorophenyl)phenyl]-4-[(2-fluorophenyl)sulfonimidoyl]benzamide] | < 100 nM | 100 to 500 nM
Cc1ccncc1S(=N)(=O)c1ccc(C(=O)Nc2cc(-c3ccc(F)cc3)ccc2N)cc1 (stereo not shown) [Compound 198, N-[2-amino-5-(4-fluorophenyl)phenyl]-4-[(4-methyl-3-pyridyl)sulfonimidoyl]benzamide] | < 100 nM | 500 to 2000 nM
Cc1cncc(S(=N)(=O)c2ccc(C(=O)Nc3cc(-c4ccc(F)cc4)ccc3N)cc2)c1 (stereo not shown) [Compound 199, N-[2-amino-5-(4-fluorophenyl)phenyl]-4-[(5-methyl-3-pyridyl)sulfonimidoyl]benzamide] | < 100 nM | 500 to 2000 nM
CS(=N)(=O)c1cnc2cc(C(=O)Nc3cc(-c4ccc(F)cc4)ccc3N)sc2c1 (stereo not shown) [Compound 200, N-[2-amino-5-(4-fluorophenyl)phenyl]-6-(methylsulfonimidoyl)thieno[3,2-b]pyridine-2-carboxamide] | < 100 nM | 500 to 2000 nM
CS(=N)(=O)c1cnc2sc(C(=O)Nc3cc(-c4ccc(F)cc4)ccc3N)cc2c1 (stereo not shown) [Compound 202, N-[2-amino-5-(4-fluorophenyl)phenyl]-5-(methylsulfonimidoyl)thieno[2,3-b]pyridine-2-carboxamide] | < 100 nM | > 2000 nM
Nc1ccc(-c2ccc(Cl)cc2)cc1NC(=O)c1ccc(S2(=O)=NCCC2)cc1 (stereo not shown) [Compound 203, N-[2-amino-5-(4-chlorophenyl)phenyl]-4-(1-oxo-4,5-dihydro-3H-isothiazol-1-yl)benzamide] | < 100 nM | > 2000 nM
N=S(=O)(c1ccc(C(=O)Nc2cc(-c3ccc(F)cc3)ccc2N)cc1)c1ccc(C(F)(F)F)nc1 (stereo not shown) [Compound 205, N-[2-amino-5-(4-fluorophenyl)phenyl]-4-[[6-(trifluoromethyl)-3-pyridyl]sulfonimidoyl]benzamide] | < 100 nM | > 2000 nM
N=S(=O)(c1ccc(C(=O)Nc2cc(-c3ccc(F)cc3)ccc2N)cc1)c1cncc(F)c1 (stereo not shown) [Compound 206, N-(4-amino-4′-fluoro-[1,1′-biphenyl]-3-yl)-4-(5-fluoropyridine-3-sulfonimidoyl)benzamide] | < 100 nM | 500 to 2000 nM
CCN=S(C)(=O)c1ccc2sc(C(=O)Nc3cc(-c4ccc(F)cc4)ccc3N)cc2c1 (stereo not shown) [Compound 207, N-[2-amino-5-(4-fluorophenyl)phenyl]-5-(N-ethyl-S-methyl-sulfonimidoyl)benzothiophene-2-carboxamide] | < 100 nM | 500 to 2000 nM
N=S(=O)(c1ccc(C(=O)Nc2cc(-c3ccc(F)cc3)ccc2N)cc1)c1ccc(CO)nc1 (stereo not shown) [Compound 208] | < 100 nM | 500 to 2000 nM
Cc1nc[nH]c1S(=N)(=O)c1ccc(C(=O)Nc2cc(-c3ccc(F)cc3)ccc2N)cc1 (stereo not shown) [Compound 209, N-[2-amino-5-(4-fluorophenyl)phenyl]-4-[(4-methyl-1H-imidazol-5-yl)sulfonimidoyl]benzamide] | < 100 nM | 100 to 500 nM
Nc1ccc(-c2ccc(F)cc2)cc1NC(=O)c1cc2cc(S3(=O)=NCCC3)ccc2o1 (stereo not shown) [Compound 210] | < 100 nM | 500 to 2000 nM
CS(=O)(=NC1CC1)c1ccc2sc(C(=O)Nc3cc(-c4ccc(F)cc4)ccc3N)cc2c1 (stereo not shown) [Compound 211, N-[2-amino-5-(4-fluorophenyl)phenyl]-5-(N-cyclopropyl-S-methyl-sulfonimidoyl)benzothiophene-2-carboxamide] | < 100 nM | 500 to 2000 nM
N=S(=O)(c1ccc(F)cc1)c1ccc(C(=O)Nc2cc(-c3ccc(F)cc3)ccc2N)cc1 (stereo not shown) [Compound 214, N-[2-amino-5-(4-fluorophenyl)phenyl]-4-[(4-fluorophenyl)sulfonimidoyl]benzamide] | < 100 nM | 500 to 2000 nM
Cc1cccc(S(=N)(=O)c2ccc(C(=O)Nc3cc(-c4ccc(F)cc4)ccc3N)cc2)n1 (stereo not shown) [Compound 215, N-[2-amino-5-(4-fluorophenyl)phenyl]-4-[(6-methyl-2-pyridyl)sulfonimidoyl]benzamide] | < 100 nM | 500 to 2000 nM
N=S(=O)(c1ccc(C(=O)Nc2cc(-c3ccc(F)cc3)ccc2N)cc1)c1cccc(F)c1 (stereo not shown) [Compound 216, N-[2-amino-5-(4-fluorophenyl)phenyl]-4-[(3-fluorophenyl)sulfonimidoyl]benzamide] | < 100 nM | 500 to 2000 nM

Now from value to compound:

IC50 [1] | IC50 [2] | SMILES
< 100 nM | 100 to 500 nM | CS(=N)(=O)c1ccc2oc(C(=O)Nc3cc(-c4ccc(F)cc4)ccc3N)cc2c1 (stereo not shown) [Compound 171, N-(4-amino-4′-fluoro-[1,1′-biphenyl]-3-yl)-5-(S-methylsulfonimidoyl)benzofuran-2-carboxamide]
< 100 nM | 500 to 2000 nM | N=S(=O)(c1ccc(C(=O)Nc2cc(-c3ccc(F)cc3)ccc2N)cc1)c1cccnc1 (stereo not shown) [Compound 172, N-[2-amino-5-(4-fluorophenyl)phenyl]-4-(3-pyridylsulfonimidoyl)benzamide]
< 100 nM | 500 to 2000 nM | CS(=N)(=O)c1ccc2sc(C(=O)Nc3cc(-c4ccc(F)cc4)ccc3N)cc2c1 (stereo not shown) [Compound 173, N-[2-amino-5-(4-fluorophenyl)phenyl]-5-(methylsulfonimidoyl)benzothiophene-2-carboxamide]
< 100 nM | 500 to 2000 nM | N=S(=O)(c1ccc(C(=O)Nc2cc(-c3ccc(F)cc3)ccc2N)cc1)c1cccnn1 (stereo not shown) [Compound 174, N-[2-amino-5-(4-fluorophenyl)phenyl]-4-(pyridazin-3-ylsulfonimidoyl)benzamide]
< 100 nM | 500 to 2000 nM | N=S(=O)(c1ccccn1)c1ccc(C(=O)Nc2cc(-c3ccc(F)cc3)ccc2N)cn1 (stereo not shown) [Compound 175, N-[2-amino-5-(4-fluorophenyl)phenyl]-6-(2-pyridylsulfonimidoyl)pyridine-3-carboxamide]
< 100 nM | 500 to 2000 nM | N=S(=O)(c1ccc(C(=O)Nc2cc(-c3ccc(F)cc3)ccc2N)cc1)C(F)(F)F (stereo not shown) [Compound 177, N-[2-amino-5-(4-fluorophenyl)phenyl]-4-(trifluoromethylsulfonimidoyl)benzamide]
< 100 nM | 500 to 2000 nM | N=S(=O)(c1ccc(C(=O)Nc2cc(-c3ccc(F)cc3)ccc2N)cn1)C1CC1 (stereo not shown) [Compound 179, N-[2-amino-5-(4-fluorophenyl)phenyl]-6-(cyclopropylsulfonimidoyl)pyridine-3-carboxamide]
< 100 nM | > 2000 nM | CS(=N)(=O)c1ccc(C(=O)Nc2cc(-c3cccc(C(N)=O)c3)ccc2N)cc1 (stereo not shown) [Compound 180, 3-[4-amino-3-[[4-(methylsulfonimidoyl)benzoyl]amino]phenyl]benzamide]
< 100 nM | > 2000 nM | CS(=N)(=O)c1ccc(C(=O)Nc2cc(-c3ccc(Cl)cc3)ccc2N)cc1 (stereo not shown) [Compound 182, N-[2-amino-5-(4-chlorophenyl)phenyl]-4-(methylsulfonimidoyl)benzamide]
< 100 nM | 500 to 2000 nM | CS(=N)(=O)c1cc2ccc(C(=O)Nc3cc(-c4ccc(F)cc4)ccc3N)cc2o1 (stereo not shown) [Compound 187, N-[2-amino-5-(4-fluorophenyl)phenyl]-2-(methylsulfonimidoyl)benzofuran-6-carboxamide]
< 100 nM | 500 to 2000 nM | CS(=N)(=O)c1cnc(C(=O)Nc2cc(-c3ccc(F)cc3)ccc2N)s1 (stereo not shown) [Compound 188, N-[2-amino-5-(4-fluorophenyl)phenyl]-5-(methylsulfonimidoyl)thiazole-2-carboxamide]
< 100 nM | 500 to 2000 nM | CS(=N)(=O)c1ccc2oc(C(=O)Nc3cc(-c4ccc(F)cc4)ccc3N)cc2n1 (stereo not shown) [Compound 189, N-[2-amino-5-(4-fluorophenyl)phenyl]-5-(methylsulfonimidoyl)furo[3,2-b]pyridine-2-carboxamide]
< 100 nM | 500 to 2000 nM | Cc1ncccc1S(=N)(=O)c1ccc(C(=O)Nc2cc(-c3ccc(F)cc3)ccc2N)cc1 (stereo not shown) [Compound 190, N-[2-amino-5-(4-fluorophenyl)phenyl]-4-[(2-methyl-3-pyridyl)sulfonimidoyl]benzamide]
< 100 nM | 500 to 2000 nM | N=S(=O)(c1ccc(C(=O)Nc2cc(-c3ccc(F)cc3)ccc2N)cc1)c1cnccc1C1CC1 (stereo not shown) [Compound 191, N-[2-amino-5-(4-fluorophenyl)phenyl]-4-[(4-cyclopropyl-3-pyridyl)sulfonimidoyl]benzamide]
